Measured values from patent publication US5989875A, “Method of process for producing L-lysine by fermentation” (priority 1995, dated 1999).
Converted amounts (≈) assume the structure as drawn.

What was measured:
GT3/pLYSC1 strain = test: Growth of GT3/pLYSC1 on M9 media containing L-lysine or AEC; format: cell-based, E. coli; settings: for MIC: Escherichia coli, GT3, read-out: Allotment of addition in which growth was completely suppressed; for Growth of GT3/pLYSC1: M9 agar
Experimental: (§1) A transformed strain obtained by introducing pLYSC1 into the AK completely deficient strain, E. coli GT3 was designated as GT3/pLYSC1, and a transformed strain obtained by introducing pLYSC2 into the E. coli GT3 was designated as GT3/pLYSC2. A considerable amount of L-lysine was added to the minimal medium M9, and the GT3/pLYSC1 strain and the GT3/pLYSC2 strain were each cultivated. Both of the GT3/pLYSC1 strain and the GT3/pLYSC2 strain harbor plasmids containing the wild type lysC, in which AKIII encoded by lysC on the plasmids is a sole AK. The wild type AKIII as the sole AK is inhibited by L-lysine in the presence of a considerable amount of L-lysine.
(§2) The GT3/pLYSC1 strain and the GT3/pLYSC2 strain were cultivated on M9 agar plate media containing various concentrations of L-lysine or AEC, respectively. Growth inhibitory concentrations by L-lysine and AEC were examined, and a selection condition was investigated for a strain harboring a plasmid containing lysC*.
(§3) In this table, + indicates growth of transformant, ± indicates a little growth, and - indicates no growth.

GT3/pLYSC2 strain = test: Growth of GT3/pLYSC2 on M9 media containing L-lysine or AEC; format: cell-based, E. coli; settings: for Allotment of addition up to which growth was not suppressed: GT3/pLYSC2 strain; for Allotment of addition up to which growth was not suppressed / Growth of GT3/pLYSC2: M9 agar
Experimental: as §1, §2, §3

AKIII = target: T1, AKIII (Escherichia coli, UniProt P08660); test: Enzyme activity of AKIII and inhibition by L-lysine (cell-free extract); format: biochemical, E. coli
T1 construct: made in house; host or cells: E. coli GT3 (AKI, II, III deficient) transformed with pLYSC1 or its mutant plasmids; cell-free extract, ammonium sulfate pellet redissolved
T1 sequence (P08660 2-449): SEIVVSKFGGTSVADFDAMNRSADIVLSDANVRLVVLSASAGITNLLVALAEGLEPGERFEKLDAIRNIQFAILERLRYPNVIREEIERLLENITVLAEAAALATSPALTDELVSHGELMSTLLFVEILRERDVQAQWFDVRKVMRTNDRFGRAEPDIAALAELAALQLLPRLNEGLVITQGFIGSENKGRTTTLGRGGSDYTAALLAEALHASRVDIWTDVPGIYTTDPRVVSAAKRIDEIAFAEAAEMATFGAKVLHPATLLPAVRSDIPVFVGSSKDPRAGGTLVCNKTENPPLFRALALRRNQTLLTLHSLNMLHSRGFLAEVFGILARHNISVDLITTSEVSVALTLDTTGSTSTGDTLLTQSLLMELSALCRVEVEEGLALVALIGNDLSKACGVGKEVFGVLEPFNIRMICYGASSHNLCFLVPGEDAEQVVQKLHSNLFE
From the text: No. 24, No. 43, No. 48, No. 60, No. 80, No. 117, No. 126, No. 149, No. 150, No. 156, No. 158, No. 167, No. 169 and No. 172 were selected as representative strains of the aforementioned 14 groups. Mutant plasmids derived from pLYSC1 were recovered from each of them, and designated as pLYSC1*24, pLYSC1*43, pLYSC1*48, pLYSC1*60, pLYSC1*80, pLYSC1*117, pLYSC1*126, pLYSC1*149, pLYSC1*150, pLYSC1*156, pLYSC1*158, pLYSC1*167, pLYSC1*169 and pLYSC1*172, respectively. An AK completely deficient strain GT3 was transformed with them and the wild type pLYSC1. A cell-free extract was prepared from each of transformed strains, and the enzyme activity of AKIII was measured.
The cell-free extract (crude enzyme solution) was prepared as follows. A transformed strain was cultivated in a 2 x TY medium, and collected at an OD660 of about 0.8. Cells were washed with 0.02 M KH2 PO4 (pH 6.75)-0.03 M β-mercaptoethanol under a condition of 0° C., and the cells were disrupted by sonication (0° C., 100 W, 30 minutes×4). A disrupted cell solution was centrifuged at 33 krpm for 1 hour under a condition of 0° C. to obtain a supernatant to which ammonium sulfate was added to give 80% saturation. After centrifugation, a pellet was dissolved in 0.02 M KH2 PO4 (pH 6.75)-0.03 M β-mercaptoethanol, and stored at 0° C. overnight.
The enzyme activity of AKIII was measured in accordance with a method of Stadtman et al. (Stadtman, E. R., Cohen, G. N., LeBras, G., and Robichon-Szulmajster, H., J. Biol. Chem., 236, 2033 (1961)). Namely, a reaction solution having the following composition was incubated at 27° C. for 45 minutes, and an FeCl3 solution (2.8 N HCl 0.4 ml+12% TCA 0.4 ml+5% FeCl3 ·6H2 O/0.1 N HCl 0.7 ml) was added thereto to develop a color, and it was centrifuged followed by measurement of absorbance of a supernatant at 540 nm. The activity was indicated by an amount of hydroxamic acid generated per minute (1 U=1 μmol/min). The molar absorption coefficient was 600. Potassium aspartate was removed from the reaction solution to be used as a blank.
In measurement of the enzyme activity of AK, various concentrations of L-lysine were added to the enzyme reaction solution and the degree of inhibition by L-lysine was examined.
On the contrary, although the mutant AKIII's obtained this time had various degrees of desensitization, inhibition by L-lysine was desensitized in all of 14 species. […] The specific activity based on total protein, which might be affected by growth situations of cell and preparation of samples, was equal to or more than that of the wild type in almost all cases, and there was little problem of decrease in activity due to the introduction of mutation (Table 3). According to this fact, it was expected that an active center of AKIII was independent from a regulatory site by L-lysine with each other. In Table 3, the inhibition desensitization degree (%) refers to an AK activity in the presence of 100 mM of L-lysine compared with an AK activity in the absence of L-lysine in the reaction solution. The heat stability (%) refers to a ratio of activity maintenance after a treatment at 55° C. for 1.5 hour.

W3110/pdapA1 strain = test: Growth of W3110/pdapA1 on M9 media containing AEC; format: cell-based, E. coli
Experimental: (§4) A transformed strain obtained by introducing pdapA1 into a wild type E. coli W3110 strain (available from National Institute of Genetics (Mishima-shi, Shizuoka-ken, Japan)) was designated as W3110/pdapA1, and a transformed strain obtained by introducing pdapA2 into the E. coli W3110 strain was designated as W3110/pdapA2, respectively. These two transformed strains were cultivated respectively in a minimal medium M9 having the following composition to which AEC as an analog of lysine was added. The W3110 strain with no introduced plasmid was also cultivated in the same medium as a control.
(§5) The W3110/pdapA1 strain and the W3110/pdapA2 strain obtained as described above were cultivated on M9 agar plate media containing various concentrations of AEC, respectively. Growth inhibitory concentrations by AEC were examined, and a selection condition was investigated for a strain harboring a plasmid containing dapA*.
(§6) In this table, + indicates growth of transformant, and - indicates no growth.

W3110/pdapA2 strain = test: Growth of W3110/pdapA2 on M9 media containing AEC; format: cell-based, E. coli; settings: for Growth of W3110/pdapA2: M9 agar
Experimental: as §4, §5, §6

W3110 strain = test: Growth of W3110 strain with no plasmid in minimal medium M9 with AEC; format: cell-based, E. coli; settings: W3110 strain having no plasmid
Experimental: as §4

## NCCCC[C@H](N)C(=O)O [L-lysine]
GT3/pLYSC1 strain
  MIC: 0.2 mM (≈ 29.2 µg/mL)
GT3/pLYSC1 strain; GT3/pLYSC1
  Growth in minimal medium M9 with a considerable amount of L-lysine: suppressed in growth
GT3/pLYSC1 strain; L-lysine 0.2 mM
  Growth of GT3/pLYSC1: -
GT3/pLYSC1 strain; L-lysine 0.4 mM
  Growth of GT3/pLYSC1: -
GT3/pLYSC1 strain; L-lysine 0.8 mM
  Growth of GT3/pLYSC1: -
GT3/pLYSC1 strain; L-lysine 1.5 mM
  Growth of GT3/pLYSC1: -
GT3/pLYSC1 strain; L-lysine 3 mM
  Growth of GT3/pLYSC1: -
GT3/pLYSC1 strain; L-lysine 6 mM
  Growth of GT3/pLYSC1: -
GT3/pLYSC1 strain; L-lysine 12 mM
  Growth of GT3/pLYSC1: -
GT3/pLYSC1 strain; L-lysine 25 mM
  Growth of GT3/pLYSC1: -
GT3/pLYSC1 strain; L-lysine 50 mM
  Growth of GT3/pLYSC1: -
GT3/pLYSC1 strain; L-lysine 100 mM
  Growth of GT3/pLYSC1: -
GT3/pLYSC1 strain; L-lysine 200 mM
  Growth of GT3/pLYSC1: -
GT3/pLYSC2 strain; GT3/pLYSC2
  Growth in minimal medium M9 with a considerable amount of L-lysine: suppressed in growth
GT3/pLYSC2 strain
  Allotment of addition up to which growth was not suppressed: 100 mM
GT3/pLYSC2 strain; L-lysine 0.2 mM
  Growth of GT3/pLYSC2: +
GT3/pLYSC2 strain; L-lysine 0.4 mM
  Growth of GT3/pLYSC2: +
GT3/pLYSC2 strain; L-lysine 0.8 mM
  Growth of GT3/pLYSC2: +
GT3/pLYSC2 strain; L-lysine 1.5 mM
  Growth of GT3/pLYSC2: +
GT3/pLYSC2 strain; L-lysine 3 mM
  Growth of GT3/pLYSC2: +
GT3/pLYSC2 strain; L-lysine 6 mM
  Growth of GT3/pLYSC2: +
GT3/pLYSC2 strain; L-lysine 12 mM
  Growth of GT3/pLYSC2: +
GT3/pLYSC2 strain; L-lysine 25 mM
  Growth of GT3/pLYSC2: +
GT3/pLYSC2 strain; L-lysine 50 mM
  Growth of GT3/pLYSC2: +
GT3/pLYSC2 strain; L-lysine 100 mM
  Growth of GT3/pLYSC2: ±
GT3/pLYSC2 strain; L-lysine 200 mM
  Growth of GT3/pLYSC2: -
AKIII
  IC50: ~450 µM
AKIII; read-out: Inhibition of AKIII
  inhibition at 5000 µM: ~100%

## NCCSC[C@H](N)C(=O)O [AEC, S-2-aminoethylcysteine]
W3110/pdapA1 strain; Escherichia coli, W3110/pdapA1 strain, M9 agar, read-out: Allotment of addition in which growth was suppressed
  MIC: 30 mM (≈ 4930 µg/mL)
W3110/pdapA1 strain; M9 agar, AEC 2 mM
  Growth of W3110/pdapA1: +
W3110/pdapA1 strain; M9 agar, AEC 4 mM
  Growth of W3110/pdapA1: +
W3110/pdapA1 strain; M9 agar, AEC 8 mM
  Growth of W3110/pdapA1: +
W3110/pdapA1 strain; M9 agar, AEC 15 mM
  Growth of W3110/pdapA1: +
W3110/pdapA1 strain; M9 agar, AEC 30 mM
  Growth of W3110/pdapA1: -
W3110/pdapA1 strain; M9 agar, AEC 60 mM
  Growth of W3110/pdapA1: -
W3110/pdapA1 strain; M9 agar, AEC 125 mM
  Growth of W3110/pdapA1: -
W3110/pdapA1 strain; M9 agar, AEC 250 mM
  Growth of W3110/pdapA1: -
W3110/pdapA1 strain; W3110/pdapA1
  Growth in minimal medium M9 to which AEC was added: suppressed in growth
W3110/pdapA2 strain; Escherichia coli, read-out: Allotment of addition in which growth was suppressed
  MIC: 15 mM (≈ 2460 µg/mL)
W3110/pdapA2 strain; AEC 2 mM
  Growth of W3110/pdapA2: +
W3110/pdapA2 strain; AEC 4 mM
  Growth of W3110/pdapA2: +
W3110/pdapA2 strain; AEC 8 mM
  Growth of W3110/pdapA2: +
W3110/pdapA2 strain; AEC 15 mM
  Growth of W3110/pdapA2: -
W3110/pdapA2 strain; AEC 30 mM
  Growth of W3110/pdapA2: -
W3110/pdapA2 strain; AEC 60 mM
  Growth of W3110/pdapA2: -
W3110/pdapA2 strain; AEC 125 mM
  Growth of W3110/pdapA2: -
W3110/pdapA2 strain; AEC 250 mM
  Growth of W3110/pdapA2: -
W3110/pdapA2 strain; W3110/pdapA2
  Growth in minimal medium M9 to which AEC was added: suppressed in growth
GT3/pLYSC1 strain
  MIC: 0.2 mM (≈ 32.8 µg/mL)
GT3/pLYSC1 strain; AEC 0.2 mM
  Growth of GT3/pLYSC1: -
GT3/pLYSC1 strain; AEC 0.4 mM
  Growth of GT3/pLYSC1: -
GT3/pLYSC1 strain; AEC 0.8 mM
  Growth of GT3/pLYSC1: -
GT3/pLYSC1 strain; AEC 1.5 mM
  Growth of GT3/pLYSC1: -
GT3/pLYSC1 strain; AEC 3 mM
  Growth of GT3/pLYSC1: -
GT3/pLYSC1 strain; AEC 6 mM
  Growth of GT3/pLYSC1: -
GT3/pLYSC1 strain; AEC 12 mM
  Growth of GT3/pLYSC1: -
GT3/pLYSC1 strain; AEC 25 mM
  Growth of GT3/pLYSC1: -
GT3/pLYSC1 strain; AEC 50 mM
  Growth of GT3/pLYSC1: -
GT3/pLYSC2 strain
  Allotment of addition up to which growth was not suppressed: 3 mM
GT3/pLYSC2 strain; AEC 0.2 mM
  Growth of GT3/pLYSC2: ±
GT3/pLYSC2 strain; AEC 0.4 mM
  Growth of GT3/pLYSC2: ±
GT3/pLYSC2 strain; AEC 0.8 mM
  Growth of GT3/pLYSC2: ±
GT3/pLYSC2 strain; AEC 1.5 mM
  Growth of GT3/pLYSC2: ±
GT3/pLYSC2 strain; AEC 3 mM
  Growth of GT3/pLYSC2: ±
GT3/pLYSC2 strain; AEC 6 mM
  Growth of GT3/pLYSC2: -
GT3/pLYSC2 strain; AEC 12 mM
  Growth of GT3/pLYSC2: -
GT3/pLYSC2 strain; AEC 25 mM
  Growth of GT3/pLYSC2: -
GT3/pLYSC2 strain; AEC 50 mM
  Growth of GT3/pLYSC2: -
W3110 strain
  Growth in minimal medium M9 to which AEC was added: suppressed in growth
